Series [1] has as its system Avena fatua. The series is described as follows: Post-emergence herbicidal activity against Avena fatua at 125 g ai/ha measured after 3 weeks post compound treatment. The format is functional.
Series [2] has as its system Triticum aestivum. In words: Phytotoxicity against Triticum aestivum (wheat) plants assessed as crop damage at 125 g ai/ha measured after 3 weeks post compound treatment. The format is organism-based. The conditions noted are these: in vivo, 504 h.
Series [3] has as its system Echinochloa crus-galli. The series is described as follows: Post-emergence herbicidal activity against Echinochloa crus-galli (barnyard grass) at 125 g ai/ha measured after 3 weeks post compound treatment. Format: functional.
The test system of series [4] is Hordeum vulgare. In words: Phytotoxicity against Hordeum vulgare (barley) plants assessed as crop damage at 125 g ai/ha measured after 3 weeks post compound treatment. The format is organism-based. The conditions noted are these: in vivo, 504 h.
Series [5] concerns Sorghum halepense. The series is described as follows: Post-emergence herbicidal activity against Sorghum halepense (Johnson grass) at 125 g ai/ha measured after 3 weeks post compound treatment. Format: functional.

Structures are written as SMILES.

Activity data for 14 compounds are collected here from ChEMBL document CHEMBL3046927, “Synthesis and herbicidal activity of novel 5-chloro-3-fluoro-2-phenoxypyridines with a 1,3,4-oxadiazole ring” (J Pestic Sci, 2011).

In the case of `CC(O)CSc1nnc([C@@H](C)Oc2ccc(Oc3ncc(Cl)cc3F)cc2)o1` (stereo not given in full), the Activity in series [1] was 35%; in series [2], 0%; in series [3] it was 40%; in series [4], 0%; in series [5] it was 30%.
As to `C[C@@H](Oc1ccc(Oc2ncc(Cl)cc2F)cc1)c1nnc(SC(=O)c2ccccc2)o1`, the Activity in series [1] came out at 35%; in series [2] it was 0%; in series [3], 55%; in series [4], 0%; in series [5], 40%.
As to `CCSc1nnc([C@@H](C)Oc2ccc(Oc3ncc(Cl)cc3F)cc2)o1`, the Activity in series [1] worked out at 75%; in series [2], 5%; in series [3], 85%; in series [4], 15%; in series [5], 60%.
On the same counts, the results for `CCOC(=O)Sc1nnc([C@@H](C)Oc2ccc(Oc3ncc(Cl)cc3F)cc2)o1` are 45%, 0%, 60%, 0% and 40%.
In the case of `CC(Sc1nnc([C@@H](C)Oc2ccc(Oc3ncc(Cl)cc3F)cc2)o1)C(=O)O` (stereo not given in full), the Activity in series [1] worked out at 70%; in series [2] it was 0%; in series [3] it was 70%; in series [4], 15%; in series [5], 60%.
For `CCCCCSc1nnc([C@@H](C)Oc2ccc(Oc3ncc(Cl)cc3F)cc2)o1`, the Activity in series [1] is 55%; in series [2], 0%; in series [3], 70%; in series [4] it was 5%; in series [5] it was 50%.
On to `C[C@@H](Oc1ccc(Oc2ncc(Cl)cc2F)cc1)c1nnc(SCc2ccc(Cl)nc2)o1`, for which the Activity amounted to 30% in series [1]; 0% in series [2]; 40% in series [3]; 0% in series [4]; 30% in series [5].
With `C#CCSc1nnc([C@@H](C)Oc2ccc(Oc3ncc(Cl)cc3F)cc2)o1`, the Activity in series [1] turned out to be 95%; in series [2], 0%; in series [3] it was 100%; in series [4] it was 0%; in series [5] it was 80%.
Turning to `CSc1nnc([C@@H](C)Oc2ccc(Oc3ncc(Cl)cc3F)cc2)o1`, the Activity in series [1] was 70%; in series [2] it was 5%; in series [3] it was 80%; in series [4], 15%; in series [5], 60%.
On the same counts, the results for `C[C@@H](Oc1ccc(Oc2ncc(Cl)cc2F)cc1)c1nnc(SCC(=O)O)o1` are 50%, 0%, 60%, 15% and 45%.
With `C[C@@H](Oc1ccc(Oc2ncc(Cl)cc2F)cc1)c1nnc(SCC(N)=O)o1`, the Activity is recorded as 40% in series [1]; 0% in series [2]; 45% in series [3]; 0% in series [4]; 40% in series [5].
On to `C[C@@H](Oc1ccc(Oc2ncc(Cl)cc2F)cc1)c1nnc(SCc2ccccc2)o1`, for which the Activity in series [1] is 25%; in series [2] it was 0%; in series [3], 35%; in series [4] it was 0%; in series [5], 20%.
On to `CCCCSc1nnc([C@@H](C)Oc2ccc(Oc3ncc(Cl)cc3F)cc2)o1`, for which the Activity in series [1] came out at 65%; in series [2] it was 5%; in series [3], 80%; in series [4], 10%; in series [5], 55%.
Consider `C#CCOC(=O)[C@@H](C)Oc1ccc(Oc2ncc(Cl)cc2F)cc1` [CLODINAFOP PROPARGYL], for which the Activity amounted to 85% in series [1]; 0% in series [2]; 100% in series [3]; 35% in series [4]; 80% in series [5].
